Where two headings read alike, the source gives them in different places.
Tests used:
[1] = system: carrageenin edema in Wistar-strain male rats; test: Anti-inflammatory effect (carrageenin edema of the hind paw); assay type: in vivo; settings: rats, edema volume 3 hours after carrageenin; for inhibition in vivo at 10 mg/kg / inhibition in vivo at 50 mg/kg: Rattus norvegicus, po; for inhibition in vivo at 10 mg/kg: read-out: anti-inflammatory effect dose(mg/kg) 10 (inhibition percentage of carrageenin edema); for inhibition in vivo at 50 mg/kg: 50 mg/kg orally, read-out: anti-inflammatory effect dose(mg/kg) 50 (inhibition percentage of carrageenin edema)
Description: 2. Anti-inflammatory effect
A group of five Wistar-strain male rats (100-150 g) were orally administered with each test compound suspended in 0.5% tragacanth-saline solution. After 30 minutes 0.5-1.0% carrageenin suspended in the water for injection was injected subcutaneously to a hind paw. After 3 hours the carrageenin edema was measured by volume and the inhibition percentage was determined with respect to the results for the control animals. The inhibition percentages were shown with the notations as follows: […]

[2] = system: righting reflex of dd-strain male mice; test: Central nervous system depressive effect (disappearance of righting reflex); assay type: in vivo; settings: Mus musculus, ip, read-out: C N S depressive effect (dose required for the disappearance of righting reflex)
Description: 4. Central nervous system depressive effect
Each test compound suspended in 0.5% tragacanth-saline solution was injected intraperitoneally to dd-strain male mice (16-24 g). The disappearance of righting reflex was observed under noiseless circumstances. The dose required for the disappearance of righting reflex is indicated with the following notations: […]

[3] = system: writhing syndrome in dd-strain male mice; test: Analgetic effect (acetic acid writhing syndrome); assay type: in vivo; settings: Mus musculus, po, orally, 0.6% acetic acid writhing, Litchfield-Wilcoxon, read-out: analgetic effect ED50 (95 % C.L.)
Description: 3. Analgetic effect Each test compound suspended in 0.5% tragacanth-saline solution was orally administered to dd-strain male mice (18-20 g). After one hour 0.6% acetic acid solution was intraperitoneally injected in a volume of 0.1 ml/10 g.

[4] = system: dd-strain male mice; settings: deaths 72 hours after administration
Description: The lethal dose was estimated from the death of animals 72 hours after administration.

Row | SMILES | inhibition in vivo at 10 mg/kg ([1]; 10 mg/kg orally) [%] | inhibition in vivo at 50 mg/kg [1] [%] | minimal effective dose ([2]; intraperitoneally, mice) [mg/kg] | ED50 [3] [mg/kg] | anti-inflammatory effect dose(mg/kg) 10 (inhibition percentage of carrageenin edema) ([1]; 10 mg/kg orally) | acute toxicity i.p. (lethal dose) [4] | acute toxicity p.o. (lethal dose) [4] [mg/kg] | minimal effective dose [2] [mg/kg]
1 | CCN1Cc2cccnc2N(c2ccc(F)cc2)C1=O [drawing 129/C2 H5] | 46 to 60 | 46 to 60 | 10 to 30 | 4.9 | – | – | – | –
2 | CN1Cc2cccnc2N(c2ccccc2Cl)C1=O [drawing 130/CH3] | – | 16 to 30 | 30 to 100 | 44 | – | – | – | –
3 | C=CCN1Cc2cccnc2N(c2cccc(Cl)c2)C1=O [drawing 132/CH2 CHCH2] | 46 to 60 | 46 to 60 | 3 to 10 | 1.2 | – | – | – | –
4 | COCN1Cc2cccnc2N(c2cccc(Cl)c2)C1=O [drawing 132/CH2 OCH3] | 46 to 60 | > 61 | 3 to 10 | 1.6 | – | – | – | –
5 | CN1Cc2cccnc2N(c2cccc(Cl)c2)C1=O [drawing 132/CH3, 1-(m-chlorophenyl)-3-methyl-2-oxo-1,2,3,4-tetrahydropyrido[2,3-d]pyrimidine] | 46 to 60 | > 61 | < 3 | 13 | – | – | – | –
6 | CCN1Cc2cccnc2N(c2ccc(Cl)cc2)C1=O [drawing 133/C2 H5] | – | 46 to 60 | < 3 | 49 | + ++ | – | – | –
7 | CCN1Cc2cccnc2N(c2cccc(Br)c2)C1=O [drawing 134/C2 H5] | 46 to 60 | 46 to 60 | < 3 | 2.85 | – | 100 300 mg/kg | – | –
8 | CCCN1Cc2cccnc2N(c2cccc(Br)c2)C1=O [drawing 134/CH2 CH2 CH3] | 46 to 60 | 46 to 60 | 3 to 10 | 2.65 | – | – | < 2000 | –
9 | CCN1Cc2cccnc2N(c2cccc(C(F)(F)F)c2)C1=O [drawing 135/C2 H5, 1-(m-trifluoromethylphenyl)-3-ethyl-2-oxo-1,2,3,4-tetrahydropyrido[2,3-d]pyrimidine] | 31 to 45 | 46 to 60 | 3 to 10 | 6.3 | – | – | – | –
10 | O=C1N(CCO)Cc2cccnc2N1c1cccc(C(F)(F)F)c1 [drawing 135/CH2 CH2 OH] | – | 16 to 30 | > 1000 | 55 | – | > 1000 mg/kg | > 2000 | –
11 | O=C(O)CN1Cc2cccnc2N(c2cccc(C(F)(F)F)c2)C1=O [drawing 135/CH2 COOH] | – | – | > 1000 | > 100 | – | > 1000 mg/kg | > 2000 | –
12 | COCN1Cc2cccnc2N(c2cccc(C(F)(F)F)c2)C1=O [drawing 135/CH2 OCH3] | – | 31 to 45 | 10 to 30 | 8.1 | – | – | – | –
13 | CN1Cc2cccnc2N(c2cccc(C(F)(F)F)c2)C1=O [drawing 135/CH3, 1-(m-trifluoromethylphenyl)-3-methyl-2-oxo-1,2,3,4-tetrahydropyrido[2,3-d]pyrimidine] | 16 to 30 | 46 to 60 | 3 to 10 | 6.6 | – | – | < 500 | –
14 | CCN1Cc2cccnc2N(c2ccc(Cl)c(Cl)c2)C1=O [drawing 137/C2 H5] | 46 to 60 | 46 to 60 | < 3 | 1.3 | – | – | – | –
15 | O=C1N(CCF)Cc2cccnc2N1c1ccc(Cl)c(Cl)c1 [drawing 137/CH2 CH2 F] | > 61 | – | 3 to 10 | 1 | – | – | – | –
16 | O=C(O)c1ccccc1Nc1cccc(C(F)(F)F)c1 [flufenamic acid, reference compound] | < 15 | 16 to 30 | > 1000 | 180 | – | 300 to 1000 mg/kg | – | –
17 | Cc1ccccc1-n1c(C)nc2ccccc2c1=O [methaqualone, reference compound] | – | – | – | – | – | – | – | 10 to 30
18 | CCCCC1C(=O)N(c2ccccc2)N(c2ccccc2)C1=O [phenylbutazone, reference compound] | < 15 | 31 to 45 | 300 to 1000 | 290 | – | – | – | –

Reference: US4009166A, “Pyrido(2,3-d) pyrimidinones” (Hisamitsu Pharmaceutical Co., Inc., priority 1974, dated 1977)
